Results as given in patent publication US20070287676A1, “Diagnosis and treatment of endometriosis” (priority 2006, published 2007).

Legend:
[1] = system: endometriotic cells; experiment: Suppression of growth and inflammation of endometriotic cells; assay type: cell-based; settings: used alone
[2] = system: YHES cells (immortalized human endometrial stromal cell line); experiment: MTT cell proliferation assay in YHES cells; assay type: cell-based; settings: 48 hr; for increased cell proliferation: E2 and P pretreated, vs control
Description: An immortalized human endometrial stromal cell line was maintained following Krikun et al. (Krikun et al. 2004 Endocrinology 145:2291-6). Cells were maintained in phenol red-free DMEM/F12 (Gibco, CA) medium supplemented with 10% charcoal-dextran stripped FBS (Biomeda, CA), 1 μl/ml sodium pyruvate (Gibco, CA) and 1× Pen/Strep/Fungizone (Gibco, CA), at 37° C. with 5% C02 in a humidified incubator.
(§1) The YHES cells were harvested by trypsinization and seeded in 96-well plate at ˜1×10^4 cells/well. The cells were allowed to attach to the plate for overnight at 37° C. with 5% C02 in a humidified incubator. Then they were pretreated with physiological concentration of E2 (10^-9M) and P (10^-7M) for 24 hr to maintain hormonal responsiveness. […] Cell growth was valuated by the MTT assay (ATCC, Manassas, Va.). MTT assay was performing according to the manufacturer's instructions, and in triplicate to generate mean values. Cell numbers in the untreated control were arbitrarily assigned as 1. The relative cell growth was expressed as fold increase/decrease relative to the control. Data were presented as mean values from three independently repeated experiments.

[3] = system: YHES cells pretreated with H2O2; experiment: H2O2-induced cell proliferation, MTT assay; assay type: cell-based, human; settings: H2O2 1 μM, 48 hours; for suppression of H2O2-induced cell proliferation: vs H2O2 only
Description: MTT assay was performed after 48 hours of treatment.
as §1
The addition of H202 was meant to mimic the oxidative stress as reported in endometriosis. […] RU486 suppressed cell proliferation by 75% at the concentration of 100 μM.

[4] = system: YHES cells; experiment: Long-term culture and morphology after treatment; assay type: cell-based, human; settings: for recovery judged by morphology: four weeks after the treatment, TSA and RU486 at 100 μM
Source text: The micrographs of the first two rows were taken using 20× magnification, and those of the third row were taken using 10× magnification. The micrographs of the first row and the first two micrographs of second row were obtained using differential inference contrast (DIC) optic; the others were obtained without the DIC optic. […]

[5] = system: AR; experiment: AR mRNA expression by RT-PCR in treated YHES cells; assay type: cell-based, human; settings: for AR mRNA expression level vs untreated control: 8 h, 18 h and 36 h, TSA 10 μM, CDB 100 μM, NAC 10 mM, semi-quantitative RT-PCR; for AR expression: 36 h of treatment, real-time RT-PCR
Description: (§2) The YHES cells were harvested by trypsinization and seeded in 12-well at 5×10^4 cells/well plates and were pretreated with E2 and P as described above. […] Total RNA was isolated from treated cells using TRIzol reagent (Invitrogen, Carlsbad, Calif.) according to the manufacturer's instructions. The integrity of total RNA was inspected on an agarose gel. One microgram of total RNA from each sample was treated with DNase I to remove potential DNA contamination and then reverse-transcribed using Superscript II Reverse Transcriptase (Invitrogen). First-strand cDNA obtained from RNA samples was stored at −80° C. until use. To measure the mRNA expression levels of AR, PR-A, PR-B, Fas and FasL in each cell culture, semi-quantitative PCR analysis was performed.
(§3) Quantitative real-time RT-PCR was carried out on an ABI 7900 DNA sequencer (Applied Biosystems), and monitored by SYBR Green I (Qiagen, Valencia, Calif.). The PCR products of the expected size were visualized on a 0.8% agarose gel. The relative mRNA level of each gene was calculated using relative quantitation of gene expression (Applied Biosystems, Foster City, Calif.) with 18s as an endogenous control. The reproducibility of the quantitative measurements was evaluated by two independent cDNA syntheses. The means and standard deviations of the replicated measurements were calculated and presented as mean ±s.d.

[6] = system: PR-A; experiment: PR-A mRNA expression by RT-PCR in treated YHES cells; assay type: cell-based, human; settings: 8 h, 18 h and 36 h; TSA 10 μM, CDB 100 μM, NAC 10 mM; semi-quantitative RT-PCR
Description: as §2, §3

[7] = system: PR-B; experiment: PR-B mRNA expression by RT-PCR in treated YHES cells; assay type: cell-based, human; settings: 8 h, 18 h and 36 h; TSA 10 μM, CDB 100 μM, NAC 10 mM; semi-quantitative RT-PCR
Description: as §2, §3

[8] = system: Fas; experiment: Fas mRNA expression by RT-PCR in treated YHES cells; assay type: cell-based, human
Description: as §2, §3

[9] = system: AR; experiment: Western blot of AR protein in treated YHES cells; assay type: cell-based, human; settings: 16 hrs; TSA 10 μM, CDB 100 μM, NAC 10 mM
Description: Western blot analysis was performed to measure protein expression of β-actin, ERα, ERβ, and AR. […] Whole cell lysate was prepared as previously described (44) by using RIPA lysis buffer containing 50 mM Tris, pH 7.4, 150 mM NaCl, 12 mM EDTA, 1% Triton X-100, 0.5% sodium deoxycholate, and 0.1% SDS. To avoid degradation, a protease inhibitor cocktail III (Sigma) was added at 2%. Total protein was quantified using a BCA protein assay kit (Pierce, Rockford, Ill.). Ten microgram of total protein was separated by electrophoresis on 10% SDS-polyacrylamide gels. The protein was then transferred onto PVDF membranes (Milipore, Bedford, Mass.). […] The blot was then subsequently incubated with primary antibody rabbit anti-human ERα (Santa Cruz Biotechnology, CA), rabbit anti-human ERβ (Zymed Laboratories, South San Francisco, Calif.), rabbit anti-β-actin (Cell Signaling Technology, Beverly, Mass.), or rabbit ant-human AR (Santa Cruz Biotechnology, CA), respectively, in blocking solution (5% nonfat dry milk plus PBS) for 2 hr at room temperature. After washing with PBS plus 0.5% Tween-20, the membranes were then incubated with the secondary antibody goat anti-rabbit IgG (H+L)-HRP (Santa Cruz Biotechnology, CA) at 1:8000 dilution in blocking solution for 2 h at room temperature. […]

[10] = system: patients diagnosed with adenomyosis; experiment: Pilot study of off-label valproic acid in adenomyosis; assay type: in vivo, human; settings: for relief of dysmenorrhea reported by patients: 3 patients
Source text: After informed consent, we recruited three patients diagnosed with adenomyosis (FIG. 28). All three patients had moderate to severe dysmenorrehea. They were all married and parous, and had normal menstrual cycles (28-30 days). […] During the recruitment, all patients were offered the option of hysterectomy or the chance to try an experimental drug. They all chose to try the drug and were all given the full explanation of the experimental nature of this study and possible risks associated with it. Approval for this pilot study was obtained from the local ethics committee at Shanghai OB/GYN Hospital, Fudan University. The diagnosis of adenomyosis of all three patients was made based on symptomology, pelvic examination and vaginal ultrasound evaluation by experienced physicians (FIG. 28). […] The treatment was terminated at the end of the 3rd month after taking the drug and the patients were followed up for an additional 3 months. During treatment, clinical signs, symptoms and ultrasound evaluation were closely monitored. Blood counts and biochemistries including liver function tests, ammonium and coagulation studies were performed monthly.

[11] = Pilot study: safety, tolerability and laboratory monitoring; assay type: in vivo, human
Source text: The diagnosis of adenomyosis of all three patients was made based on symptomology, pelvic examination and vaginal ultrasound evaluation by experienced physicians (FIG. 28). […] The treatment was terminated at the end of the 3rd month after taking the drug and the patients were followed up for an additional 3 months. During treatment, clinical signs, symptoms and ultrasound evaluation were closely monitored. Blood counts and biochemistries including liver function tests, ammonium and coagulation studies were performed monthly.

[12] = system: endometrial cells; settings: immortalized human endometrial stromal cells; cited from earlier work
[13] = system: endometrial stromal cells; settings: in vitro; cited from earlier work
[14] = 18 and 36 h after the treatment

Nc1ncn([C@@H]2O[C@H](CO)[C@@H](O)[C@H]2O)c(=O)n1 [5-azacytidine]
effect of use alone on growth and inflammation [1]: some effect in suppression of growth (but not inflammation)

CC(=O)O[C@]1(C(C)=O)CC[C@H]2[C@@H]3CCC4=CC(=O)CCC4=C3[C@@H](c3ccc(N(C)C)cc3)C[C@@]21C [CDB, CDB-2914]
effect on cell proliferation ([2]; 10 μM or lower (10, 1, 0.1 μM)): statistically non-significant inhibition of cell proliferation | effect on cell proliferation ([2]; 100 μM (highest concentration)): significant suppression of cell proliferation | suppression of H2O2-induced cell proliferation ([3]; 100 μM): 49% | cell morphology ([4]; 24 h after the treatment): signs of apparent apoptosis | recovery judged by morphology [4]: apparently recovered | AR mRNA expression level vs untreated control [5]: increased | AR expression [5]: maintained the increased expression | PR-A mRNA expression level vs untreated control [6]: increased | PR-B mRNA expression level vs untreated control [7]: increased | Fas expression [8, 14]: decreased | Fas expression ([8]; 8 h after the treatment): increased | AR protein level vs control group [9]: increased

OO [H2O2]
increased cell proliferation ([2]; 1 μM): 18% | increased cell proliferation ([2]; 10 μM): 22% | effect on cell proliferation ([2]; 100 μM (highest concentration)): induced inhibition of proliferation

C[C@]12CC[C@@H]3c4ccc(O)cc4C[C@@H](CCCCCCCCC[S+]([O-])CCCC(F)(F)C(F)(F)F)[C@H]3[C@@H]1CC[C@@H]2O (stereo partly shown) [ICI, ICI 182780]
increase in proliferation as compared with the control group ([2]; 0.1 μM): about 40% | effect on cell proliferation ([2]; across 100, 10, 1, 0.1 μM): no statistically significant reduction in proliferation | effect on H2O2-induced cell proliferation ([3]; 100 μM): did not significantly inhibit

CC(=O)N[C@@H](CS)C(=O)O [NAC, N-acetylcysteine]
suppression of proliferation ([2]; 10 mM): 35% | suppression of proliferation ([2]; 30 mM): 50% | suppression of H2O2-induced cell proliferation ([3]; 10 mM): 63% | recovery judged by morphology [4]: apparently recovered | AR mRNA expression level vs untreated control [5]: increased | AR expression [5]: maintained the increased expression | PR-A mRNA expression level vs untreated control [6]: increased | PR-B mRNA expression level vs untreated control [7]: increased | Fas expression [8, 14]: decreased | Fas expression ([8]; 8 h after the treatment): increased

CC#C[C@]1(O)CC[C@H]2[C@@H]3CCC4=CC(=O)CCC4=C3[C@@H](c3ccc(N(C)C)cc3)C[C@@]21C [RU486]
reduction of cell proliferation as compared with controls ([2]; 100 μM): > 95% | suppression of H2O2-induced cell proliferation ([3]; 100 μM): 75%

CCCC(CCC)C(=O)O [VPA, valproic acid]
average reduction of uterus size ([10]; end of the 3-month treatment, three patients): 33% | uterus size by physical examination ([10]; end of the 3rd month): slight reduction in uterus size in one patient but no change in the other two | pelvic and ultrasound examinations ([10]; one month after taking VPA): no change in uterus size or other conditions | relief of dysmenorrhea reported by patients ([10]; three months after taking the drug (end of treatment)): all three patients reported complete relief of pain without any need for pain-killers | relief of dysmenorrhea reported by patients ([10]; three months after taking the drug (end of treatment), listed as valproic acid): all three recruited patients reported complete disappearance of dysmenorrhea | dysmenorrhea reported by patients ([10]; three months after the discontinuation of the treatment): 2 patients reported disappearance of dysmenorrehea, but 1 reported the return of the same symptom | relief of dysmenorrhea reported by patients ([10]; two months after taking VPA, oral 500 mg b.i.d. then t.i.d.): 2 patients reported complete relief of dysmenorrehea with no need for pain-killers, and 1 reported much relieved pain | tolerability ([11]; 3-month oral VPA): well tolerated | serum level of testosterone vs normal range ([11]; end of three month after taking VPA): within the normal range | liver function and other biochemistries ([11]; monthly during treatment, all cases): remained normal | effect on cell cycle [12]: induce cell cycle arrest | effect on proliferation [13]: suppressing proliferation of endometrial and endometriotic cells in vitro
